Where two headings read alike, the source gives them in different places.
Key:
[1] = cited from earlier work
[2] = cited from earlier work; remark: listed apart in the source
[3] = cited from earlier work; remark: listed apart in the source
[4] = system: brain of normal C57 black mouse; assay: In vivo ascorbate T2 contrast changes in normal mouse brain; conditions: 2 g/kg i.v., normal C57 mice, FIG. 9B
Description: Color-lute maps of signal intensity are not subtracted from the pre-dose scan and therefore show the expected decreases in T2 signal over time, maximized between 30-60 min in normal C57 mice.

[5] = In vitro phantom quantitative T2 mapping (spin-spin relaxation MRI contrast) at 7 T
Description: Data are provided from quantitative T2 mapping at 7 T using a RARE FSE protocol with at least 6 different echo times, at solute concentrations of 10 and 20 mM.

[6] = system: whole brains of guinea pigs; assay: T2 contrast changes in guinea pig brain after i.v. ascorbate formulations, 7 T; type: in vivo; conditions: 2 g/kg i.v. over 60 minutes, nearly every time point
Description: MRI was performed for 90 minutes.

## O=C1O[C@H]([C@@H](O)CO)C(O)=C1O [ascorbate, L-ascorbic acid]
[1]; administered intravenously
  plasma concentration achievable: ≥ 10000 µM
[1]; oral ascorbate, doses more than 100 times the recommended daily allowance
  plasma concentration: ≤ 200 µM
[1]; urinary excretion of concentrations over the renal re-absorption threshold
  excretion half-life: about 30 minutes
[2]; brain and tumors
  H2O2 concentration in brain and tumors in vivo following parenteral ascorbate: 100 to 200 µM
[2]; tumors, brain cells and some other tissues
  intracellular concentration: 10 to 30 mM
[3]; disproportionation reaction at equilibrium
  pKA: 7.0
[3]; hydroxyl group at the 4 position
  pKA: 6.75
[3]; physiological pH (7.4)
  fraction present as the mono anion: 99%
[4]
  time of maximal decrease in T2 signal: 30 to 60 min
[5]; 10 mM ascorbate with physiological glucose (5 mM) or HCO3- (25 mM), FIG. 5
  change in T2 relaxation: 50%
[5]; FIG. 3C
  pH at which T2 effect is maximized: 7.0-7.4
[5]; vs phosphate-buffered saline control, conventional FSE acquisition, FIG. 3A
  lowest concentration with statistically significant negative T2 contrast (signal loss): 1 to 5 mM

## meglumine ascorbate
[6]
  FSE T2 weighted signal intensity changes, comparison between formulations: greater than those observed with sodium ascorbate (1)
[5]; water, neutral pH, FIG. 3D
  T2 contrast effect (T2 relaxation in ms) relative to meglumine or ascorbate alone: approximately 4 times

From patent publication US11235074B2, “Contrast agents for magnetic resonance imaging” (Duke University, priority 2015, dated 2022)
